The source of these data is US8697839B2, “GQ protein competitive inhibitory polypeptides, preparation methods and uses thereof” (Third Military Medical University, priority 2008, dated 2014).

Marks after values point to notes of the source that are not given here.

The conditions of data set [1]: clinical dosage converted into the dosage in the mouse; cited from earlier work.
The test system of data set [2] is rats with spontaneous hypertension (SHR). In words: myocardial remodeling and blood pressure in rats with spontaneous hypertension (SHR). The format is in vivo, rat. The settings on record: losartan 6 mg/kg intragastric qd. Here is the method:
1. Thirty 13-week-old rats with spontaneous hypertension (SHR, purchased from Beijing Vital River Laboratory Animal Technology Co. Ltd., Beijing) were selected and randomly assigned into five groups with 6 rats per group:
SHR model group (Vehicle): 0.9% physiological saline, intraperitoneal injection at a dosage of 5 ml/kg, bid.
Positive control group (losartan): potassium losartan at a dosage of 6 mg/kg, intragastric administration, qd.
The pentadecapeptide group: administration of the pentadecapeptide at a dosage of 30 μg/kg by intraperitoneal injection, bid.
The heptacosapeptide group: administration of the heptacosapeptide at a dosage of 30 μg/kg by intraperitoneal injection, bid.
The pantapentacontapeptide group: administration of the pantapentacontapeptide at a dosage of 30 μg/kg by intraperitoneal injection, bid.
Six of INKY (Wistar-Kyoto) rats (purchased from Center for Experimental Animals, Third Military Medical University) were additionally selected as the normal control.
2. Intervention with the drug was performed consecutively for eight weeks (from Week 14 to Week 21). The body weights of all the tested rats were obtained once every two weeks, and the administration dosage was adjustedbased on body weights.

[3] abbreviates: echocardiography, SHR, x ± s, n = 6.

In the case of `CCCCc1nc(Cl)c(CO)n1Cc1ccc(-c2ccccc2-c2nn[nH]n2)cc1` [Losartan, potassium losartan], the “ratio of mouse LD50/routine dosage” value in data set [1] is 349. In addition, the “Systolic blood pressure of artery” value in data set [2] (0 w, SHR, x ± s, n = 6) amounted to 178.3 ± 2.24 mmHg. Further, in data set [2] (2 w, SHR, x ± s, n = 6), the “Systolic blood pressure of artery” value was determined as 165.1 ± 4.80 mmHg. Further, the “Systolic blood pressure of artery” value in data set [2] (4 w, SHR, x ± s, n = 6) came out at 177.1 ± 8.27 mmHg. The “Systolic blood pressure of artery” value in data set [2] (6 w, SHR, x ± s, n = 6) came to 178.3 ± 6.23 mmHg. Also, the “Systolic blood pressure of artery” value in data set [2] (8 w, SHR, x ± s, n = 6) is 172.6 ± 4.82 mmHg. For the same compound, in data set [2] (setting [3]), the “EF (ejection fraction)” value came to 88.8 ± 2.62%, the “FS (shortening fraction)” value is given as 53.6 ± 3.57%, the “IVST (intervertricular septum thickness)” value is 1.87 ± 0.18 mm and the “LAD (left atrium sinistrum diameter)” value stood at 3.25 ± 0.23 mm. Besides, in data set [2] (setting [3]), the “LVEDD (left ventricular end diastolic diameter)” value came to 5.05 ± 0.42 mm, the LVESD was 2.33 ± 0.18 mm, the “PWT (left ventricular posterior wall thickness)” value is given as 2.25 ± 0.21 mm and the “SV (stroke volume)” value came to 0.21 ± 0.04 mL. In data set [2] (eight weeks, SHR, x ± s, n = 6), this compound showed an HI of 3.48 ± 0.05 mg/g, an HW of 1003 ± 16 mg, an LVI of 2.74 ± 0.28 mg/g and an LVW of 789 ± 88 mg. Moreover, the “morphology of the cardiac muscle tissues, light microscope” value in data set [2] (FIG. 2) is “Pathological changes are somewhat improved”. In data set [2] (FIG. 5), the “ultrastructure of the SHR cardiocyte, transmission electron microscope” value is “morphology of the cellular nucleus is essentially normal and somewhat irregular”. Besides, in data set [2] (P<0.01), the “CSA in comparison with the model group” value was “significantly decreased”. For the same compound, in data set [2] (SHR, x ± s, n = 6), the “CSA (cross section area of the cardiocyte)” value is reported as 335 ± 20** μm^2 and the “TDM (trans diameter of the cardiocyte)” value was 13.83 ± 2.54 μm.
